Data published in PubChem BioAssay AID2305 (GlaxoSmithKline (GSK), 2010).
Several values for one entry are separate records, joined by “and”; a condition that tells them apart may be missing. Equal values may be shown once.

Test system: P. falciparum 3D7 growth, pLDH absorbance
Assay: blood-stage malaria parasite growth potency – strain 3D7, dose response (AID 2305)

| SMILES | IC50 |
| --- | --- |
| COc1ccc2nccc([C@@H](O)CN3CCC(CO)(NCc4cc5ccccc5o4)CC3)c2c1 | 1370 nM |
| CCOC(=O)NC1=NC(C)(C)N(OCCCOc2cc(Cl)c(Cl)cc2Cl)C(NC(=O)OCC)=N1 | 30 nM |
| COc1cc(/C=C/C(=O)NC2CCC(CN3CCC(c4c[nH]c5ccccc45)CC3)CC2)ccc1O (stereo not given) | 810 nM and 790 nM |
| Fc1ccc(CNc2nc(-c3ccc(F)c(C(F)(F)F)c3)n(-c3cccc(C(F)(F)F)c3)n2)cc1 | 560 nM |
| O=C(NC1CC1)c1cnc(N2CCN(Cc3ccc(Cl)cc3)CC2)c(Cl)c1 | 850 nM |
| CC(C)=CCc1c(-c2ccc(O)cc2O)oc2c3c(cc(O)c2c1=O)OC(C)(C)C=C3 | 980 nM |
| CCN1CCN(Cc2c(O)ccc3c(=O)c(Oc4cc(C)cc(C)c4)c(C(F)(F)F)oc23)CC1 | 770 nM |
| CC(O)C1CCCCN1C(=O)c1cccc(-c2ccc(-c3nc4ccc(F)cc4[nH]3)cc2)c1 (stereo not given) | 740 nM |
| CCOc1cc(CC)ccc1C1CCN(CCN2CCC(NC(=O)c3ccc(-c4ccc(C(C)=O)cc4)cc3)CC2)CC1 | 230 nM |
| COc1cc(C=NNc2cc(C)nc3ccccc23)cc(OC)c1OC | 730 nM |
| CCC(NCc1ccc(-c2cncc(C(=O)NCC(C)C)c2)cc1)c1ccccc1 (stereo not given) | 940 nM |
| COc1cccc(NC(=O)Nc2ccc(C)c(-c3ccc(C(=O)Nc4ccncc4)cc3)c2)c1 | 520 nM |
| O=C(/C=C/c1ccc(Cl)c(Cl)c1)NCCCCCCN1CCN(C(=O)Nc2ccc(C(F)(F)F)cc2)CC1 | 400 nM |
| CCCCN(CCCC)Cc1cc(N(C)c2ccc([N+](=O)[O-])cn2)ccc1O | 540 nM |
| Nc1cc(-c2ccc(-c3cccs3)s2)nc2ccccc12 | 600 nM |
| O=C(/C=C/c1ccc(Cl)c(Cl)c1)NCCCCCN1CCC(NC(=S)Nc2ccc(F)cc2F)CC1 | 810 nM |
| CCc1c(CCNCCCCCCNCCc2ccc([N+](=O)[O-])cc2)ccc(O)c1O | 780 nM |
| Cc1ccc(Nc2ccnc(Nc3ccc4c(c3)CS(=O)(=O)C4)n2)cc1O | 720 nM |
| Cc1cc(-c2nc3ccc(N4CCN(C)CC4)cc3[nH]2)nn1Cc1cc(Cl)ccc1OCC(C)C | 880 nM |
| CC(C)NCc1ccc(-c2ccc(-c3nc4ccc(C(F)(F)F)cc4[nH]3)cc2)cc1 | 270 nM |
| CCn1c(-c2nonc2N)nc2c(-c3cccc(NC(=O)Nc4cccc(OC)c4)c3)ncc(OCCCN)c21 | 770 nM |
| C#CC[C@@H](NC(N)=O)C(=O)O | 190 nM |
| Cc1ccc2[nH]c3c(NCCCN(C)C)ncnc3c2c1 | 650 nM |
| COc1ccc2nccc([C@@H](O)CN3CCC(NCc4ccc5nsnc5c4)CC3)c2c1 | 960 nM |

| SMILES | IC50 |
| --- | --- |
| COC(=O)c1c(C#N)c(OC)cc(O)c1CSC[C@H](Nc1nc(-c2ccc([N+](=O)[O-])cc2)cs1)C(=O)NCCN1CCCCC1 | 1060 nM |
| Cc1cccc(Nc2nc(N[C@@H]3CCCNC3)nc3cc[nH]c(=O)c23)c1 | 680 nM |
| COc1cc(Cc2cnc(N)nc2N)ccc1OCc1ccc(NC(C)=O)cc1 | 370 nM |
| CC(C)[C@@H]1c2ccc(O)cc2C[C@H]2C(=O)N(C3CCCCC3)C(=O)N21 | 880 nM |
| CCn1c(-c2nonc2N)nc2c(-c3cccc(NC(=O)Nc4ccc(C(F)(F)F)cc4)c3)ncc(OCCCN)c21 | 1050 nM |
| CO/C(=C\C=C\c1cc2cc(Cl)c(Cl)cc2[nH]1)C(=O)NCC(C)(C)CN(C)C | 1160 nM |
| c1ccc(C(c2ccccc2)N2CCC(NCc3ccc(OCCCN4CCCCC4)cc3)CC2)cc1 | 560 nM |
| N#Cc1ccc(N(CCOc2ccc(Cl)cc2)Cc2ccccc2C(F)(F)F)cc1C(F)(F)F | 660 nM |
| CN1CCCN(Cc2cccc(-c3ccc(CNC(=O)c4cccc(Cl)c4)c(F)c3)c2)CC1 | 190 nM |
| O=C(NCCCNc1ccc2ccccc2n1)c1cc2c(Cl)cc(Cl)cc2[nH]1 | 600 nM |
| CN(C)CCOc1cc(NC(=O)c2ccc(-c3ccc(Cl)cc3Cl)cc2)ccc1-c1ccccc1 | 910 nM |
| O=C(O)C1CC(=O)N(c2ccc(Cl)cc2)C1 (stereo not given) | 220 nM |
| O=C(NC1CCC(N2CCN(c3cccc(C(F)(F)F)c3)CC2)CC1)c1cc2ccccc2[nH]1 (stereo not given) | 720 nM |
| O=C(/C=C/c1ccc(Cl)c(Cl)c1)NCCCCCCN1CCCN(C(=O)Nc2cccc(Cl)c2)CC1 | 860 nM |
| Oc1ccc(-c2ccccc2)cc1CN1CCCCC1 | 900 nM |
| CCn1c(-c2nonc2N)nc2c(-c3cccc(NC(=O)Nc4cccc(C#N)c4)c3)ncc(OCCCN)c21 | 670 nM |
| Cc1ccc(OCC2CCN(c3ncc(C(=O)NCCCN4CCCC4=O)cc3Cl)CC2)cc1 | 1260 nM |
| CS(=O)(=O)NCCCNCc1ccc(-c2ccc(-c3nc4ccc(C(F)(F)F)cc4[nH]3)s2)cc1 | 510 nM |
| COc1ccc(CNCCCCCCNCCc2ccc(Cl)cc2)cc1OC | 1390 nM |
| Brc1ccccc1CNc1ccnc(NCCn2ccnc2)n1 | 900 nM |
| CC(C)(C)OC(=O)NCC(=O)N(Cc1ccccc1)Cc1ccccc1 | 120 nM |
| N#Cc1cccc(C(=O)NC2CCN(c3ccnc(Nc4ccc(F)cc4)n3)C2)c1 (stereo not given) | 400 nM |
| O=C(NC1CCCCC1)N(Cc1ccc(-c2cccc(CNCc3ccc4c(c3)OCO4)c2)cc1)C1CCN(Cc2ccccc2)CC1 | 690 nM |
| COC(=O)c1cc(/C(C)=N/Nc2nc3ccccc3[nH]2)ccc1O | 680 nM |

| SMILES | IC50 |
| --- | --- |
| CC(=O)N(Cc1cccc(-c2cccc(CNCc3ccc4c(c3)OCO4)c2)c1)C1CCN(Cc2ccccc2)CC1 | 840 nM |
| Cc1ccccc1C1CCN(C2CCC(NC(=O)/C=C/c3cccc(C(F)(F)F)c3)CC2)CC1 (stereo not given) | 1520 nM |
| O=C(NCCc1ccccc1)N(Cc1ccccc1-c1cccc(CNCCc2ccccc2)c1)C1CCN(Cc2ccccc2)CC1 | 620 nM |
| NCc1ccc(CNCc2ccc(-c3ccc(-c4nc5ccc(C(F)(F)F)cc5[nH]4)s3)cc2)cc1 | 160 nM |
| Oc1c(C(Nc2nc3ccccc3s2)c2ccccc2)ccc2cccnc12 (stereo not given) | 650 nM |
| O=C(NCc1ccccc1F)c1ccc(N2CCC(NCc3cccc(-n4cccn4)c3)CC2)cc1 | 1730 nM |
| COc1cc(CN2CCC(CO)(Cc3cccc(C(F)(F)F)c3)CC2)c(Cl)cc1O | 900 nM |
| CN(C)C(CNC(=O)c1cc(-c2ccncc2)c(-c2cc3ccccc3[nH]2)o1)c1ccccc1 (stereo not given) | 840 nM |
| COc1ccc(OC)c(-c2cccc(-c3cccc(NC(=O)c4ccc([N+](=O)[O-])o4)c3)n2)c1 | 370 nM |
| Cc1cccc2[nH]c(-c3cccc(-c4cccc(C(=O)N5CCCCC5CN5CCC(O)C5)c4)c3)nc12 (stereo not given) | 460 nM |
| COc1ccc2nccc([C@@H](O)CN3CCC(NCc4nc5c(F)cc(F)cc5[nH]4)CC3)c2c1 | 570 nM |
| CN1CCN(CCCNCc2ccccc2-c2cccc(CNCc3ccc4c(c3)OCO4)c2)CC1 | 790 nM |
| COc1cc2nc(SCC(C)C)n(CCCn3ccnc3)c(=N)c2cc1OC | 610 nM |
| CN1CCC(Oc2ccc(NC(=O)c3ccc4c(=O)n(Cc5ccccc5)cnc4c3)cc2Cl)CC1 | 950 nM |
| CN(C)CCNc1ncnc2c1[nH]c1ccc(Cl)cc12 | 600 nM |
| Cc1ccc2c(=O)c3cc(C)ccc3[nH]c2c1 | 420 nM |
| CC(C)c1ccc2c(c1)C(=O)c1ccc(C(=O)O)cc1S2(=O)=O | 470 nM |
| CC(=O)N1N=C(c2[nH]c3ccc(Br)cc3c2C)OC1c1ccccc1 (stereo not given) | 780 nM |
| CCCCCCCc1c(C)[nH]c2cc(OC)ccc2c1=O | 60 nM |
| O=c1cc(NCCCNCc2cccc(C(F)(F)F)c2Cl)[nH]c2ccccc12 | 800 nM |
| COc1ccc(CNCc2ccc(-c3ccc(-c4nc5ccccc5[nH]4)cc3)cc2)cc1 | 240 nM |
| CC(C)C[C@H](NC(=O)c1cc2ccccc2s1)C(=O)N[C@H]1CCN(Cc2ccc(I)c(OCCN3CCCC3)c2)C1 | 1350 nM |
